# Results from ChEMBL document CHEMBL1201862, “PubChem BioAssay data set” (2004).
# Calls of active or inactive are those of the source.
# Key:
# [1] = biological target: C-C chemokine receptor type 6 (Homo sapiens, UniProt P51684); experiment: analog antagonism of CCR6 beta-arrestin signaling – cell-based, luminescent beta-arrestin readout, SAR follow-up (AID 540334); type: functional
# Protein RecA = biological target: T1, Protein RecA (Mycobacterium tuberculosis, UniProt P9WHJ3); experiment: Fluorescence Cell-Free Homogeneous Dose Retest to Identify Inhibitors of RecA-Intein Splicing Activity. [Related pubchem assays (depositor defined):AID2097, AID2223, AID489010, AID492950]; type: functional
# T1 sequence (P9WHJ3 whole entry): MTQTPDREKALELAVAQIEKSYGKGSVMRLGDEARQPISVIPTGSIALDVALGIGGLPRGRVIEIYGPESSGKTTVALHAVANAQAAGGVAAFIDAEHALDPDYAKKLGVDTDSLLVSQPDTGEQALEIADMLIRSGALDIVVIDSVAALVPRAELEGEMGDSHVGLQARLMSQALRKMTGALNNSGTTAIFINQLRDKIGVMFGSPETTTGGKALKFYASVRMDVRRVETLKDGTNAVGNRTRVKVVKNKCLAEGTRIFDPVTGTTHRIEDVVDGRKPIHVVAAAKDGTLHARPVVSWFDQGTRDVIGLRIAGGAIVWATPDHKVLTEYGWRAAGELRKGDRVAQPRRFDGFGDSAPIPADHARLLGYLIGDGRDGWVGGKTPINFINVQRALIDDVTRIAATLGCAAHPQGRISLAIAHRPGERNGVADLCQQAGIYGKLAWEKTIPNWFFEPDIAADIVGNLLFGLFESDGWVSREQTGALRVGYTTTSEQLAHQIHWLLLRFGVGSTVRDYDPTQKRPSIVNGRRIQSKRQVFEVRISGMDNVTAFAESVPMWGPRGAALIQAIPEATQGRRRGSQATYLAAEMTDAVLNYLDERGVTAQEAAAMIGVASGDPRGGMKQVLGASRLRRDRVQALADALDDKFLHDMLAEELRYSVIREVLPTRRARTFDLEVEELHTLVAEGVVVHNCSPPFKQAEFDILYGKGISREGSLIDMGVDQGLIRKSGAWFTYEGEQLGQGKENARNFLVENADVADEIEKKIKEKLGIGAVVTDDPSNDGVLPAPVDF
# [2] = biological target: C-X-C chemokine receptor type 5 (Homo sapiens, UniProt P32302); experiment: inhibition of CXCL13-driven CXCR5 beta-arrestin recruitment – cell-based, luminescence, CHO-K1 PathHunter, selectivity assay for CCR6 antagonist project, SAR follow-up (AID 540340); type: functional
# Chain of C-X-C chemokine receptor type 5 (P32302 whole entry): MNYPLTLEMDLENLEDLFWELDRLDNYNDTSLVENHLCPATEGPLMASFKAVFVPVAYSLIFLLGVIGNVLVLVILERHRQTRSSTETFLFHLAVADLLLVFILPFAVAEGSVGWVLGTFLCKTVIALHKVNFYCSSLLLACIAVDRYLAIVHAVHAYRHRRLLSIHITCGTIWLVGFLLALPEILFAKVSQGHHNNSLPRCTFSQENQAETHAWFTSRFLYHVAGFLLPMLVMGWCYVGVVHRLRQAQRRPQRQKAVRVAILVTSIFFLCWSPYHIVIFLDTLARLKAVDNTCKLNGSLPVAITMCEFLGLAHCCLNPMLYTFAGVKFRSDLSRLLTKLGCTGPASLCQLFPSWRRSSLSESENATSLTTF
# [3] = biological target: T2, Replicative DNA helicase DnaB (Mycobacterium tuberculosis, UniProt P9WMR3); experiment: DnaB intein splicing inhibitors, dose response, biochemical, cell-free fluorescence (AID 449749); type: functional
# T2 sequence (P9WMR3 whole entry): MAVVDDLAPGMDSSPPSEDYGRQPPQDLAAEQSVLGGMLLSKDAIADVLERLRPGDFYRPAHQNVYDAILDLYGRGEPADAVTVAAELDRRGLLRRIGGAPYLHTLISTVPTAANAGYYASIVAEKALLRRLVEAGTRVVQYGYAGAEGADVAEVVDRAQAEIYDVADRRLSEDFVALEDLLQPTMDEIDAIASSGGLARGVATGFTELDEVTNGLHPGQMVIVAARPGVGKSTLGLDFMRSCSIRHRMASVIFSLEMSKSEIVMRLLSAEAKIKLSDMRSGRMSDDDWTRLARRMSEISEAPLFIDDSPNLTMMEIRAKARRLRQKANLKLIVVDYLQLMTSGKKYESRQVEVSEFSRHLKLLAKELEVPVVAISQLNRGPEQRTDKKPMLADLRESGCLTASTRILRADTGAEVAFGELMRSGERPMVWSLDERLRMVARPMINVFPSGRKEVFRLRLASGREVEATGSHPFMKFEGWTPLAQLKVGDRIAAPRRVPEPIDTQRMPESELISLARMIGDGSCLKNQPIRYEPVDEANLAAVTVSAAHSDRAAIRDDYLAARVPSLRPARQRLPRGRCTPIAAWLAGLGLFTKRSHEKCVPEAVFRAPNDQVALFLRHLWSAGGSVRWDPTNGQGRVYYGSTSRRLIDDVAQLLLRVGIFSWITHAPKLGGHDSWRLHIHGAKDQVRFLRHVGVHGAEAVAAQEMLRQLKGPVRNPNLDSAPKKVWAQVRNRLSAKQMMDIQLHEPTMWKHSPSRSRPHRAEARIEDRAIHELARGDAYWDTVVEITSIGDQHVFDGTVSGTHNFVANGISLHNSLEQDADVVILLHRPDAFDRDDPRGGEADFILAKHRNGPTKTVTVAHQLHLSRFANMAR
# [4] = NIH3T3 cell viability loss – ATP luminescence, mouse fibroblasts, counter-screen, dose response (AID 2010); type: functional, cell-based;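 further: cells exposed to compound for about 90 hours before reading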
# Apelin receptor = Apelin receptor (Homo sapiens, UniProt P35414); experiment: apelin receptor antagonists, arrestin read-out – cell-based, luminescent, enzyme-fragment complementation, selectivity assay for CCR6 antagonist project, SAR follow-up (AID 588359); type: functional
# Chain of Apelin receptor (P35414 whole entry, the tested form may be a part): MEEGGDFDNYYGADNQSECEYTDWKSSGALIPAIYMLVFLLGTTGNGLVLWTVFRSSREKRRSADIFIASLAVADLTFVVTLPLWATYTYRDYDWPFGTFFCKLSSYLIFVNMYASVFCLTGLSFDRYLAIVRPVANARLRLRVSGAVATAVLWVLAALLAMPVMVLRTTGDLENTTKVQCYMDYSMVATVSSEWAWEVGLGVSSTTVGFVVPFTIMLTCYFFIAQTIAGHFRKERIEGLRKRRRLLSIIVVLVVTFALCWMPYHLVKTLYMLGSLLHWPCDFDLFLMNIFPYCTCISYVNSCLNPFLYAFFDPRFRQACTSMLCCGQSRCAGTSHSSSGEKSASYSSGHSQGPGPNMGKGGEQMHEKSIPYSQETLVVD
# [5] = Trypanosoma cruzi growth suppression in host cells – NIH3T3 host cells, beta-gal luminescence, confirmation (AID 2044); type: functional, cell-based;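 further: intracellular parasites grown in NIH/3T3 mouse fibroblasts as host cells; luminescent beta-galactosidase reporter signal from transgenic T. cruzi replicating inside host cells; inhibitors lower the luminescence signal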
# [6] = biological target: T3, Heat shock factor protein 1 (Mus musculus, UniProt P38532); experiment: enhancement of HSF1-driven luciferase signal – cell-based, NIH3T3, luminescence, dose retest, confirmation (AID 435004); type: functional;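 further: stress induced by proteasome inhibitor MG132 added 30 min after compound; luciferase reporter driven by HSF1 response element in NIH3T3 cells; actives raise luminescence as potentiators of the MG132 stress response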
# T3 sequence (P38532 whole entry): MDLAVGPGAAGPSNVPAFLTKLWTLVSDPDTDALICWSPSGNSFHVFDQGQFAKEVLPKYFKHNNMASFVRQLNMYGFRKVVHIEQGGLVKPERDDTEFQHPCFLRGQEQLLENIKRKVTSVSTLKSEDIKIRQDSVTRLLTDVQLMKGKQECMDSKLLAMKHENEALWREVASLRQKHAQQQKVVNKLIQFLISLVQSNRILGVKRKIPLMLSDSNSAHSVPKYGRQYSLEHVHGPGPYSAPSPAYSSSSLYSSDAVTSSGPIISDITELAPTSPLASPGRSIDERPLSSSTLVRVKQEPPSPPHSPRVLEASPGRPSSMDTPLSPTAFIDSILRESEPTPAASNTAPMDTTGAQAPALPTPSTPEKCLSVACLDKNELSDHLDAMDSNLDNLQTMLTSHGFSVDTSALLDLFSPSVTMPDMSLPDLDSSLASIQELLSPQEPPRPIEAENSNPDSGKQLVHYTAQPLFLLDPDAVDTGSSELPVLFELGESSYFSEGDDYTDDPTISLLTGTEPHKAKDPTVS
# Fatty acid synthase [7] = biological target: T4, Fatty acid synthase (Homo sapiens, UniProt P49327); experiment: inhibition of human FAS-TE enzyme activity – biochemical, kinetic fluorescence intensity, dose response (AID 624326); type: functional;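 further: rate of fluorescence rise from hydrolysis of a fluorogenic O-methyl fluorescein ester substrate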
# T4 sequence (P49327 whole entry): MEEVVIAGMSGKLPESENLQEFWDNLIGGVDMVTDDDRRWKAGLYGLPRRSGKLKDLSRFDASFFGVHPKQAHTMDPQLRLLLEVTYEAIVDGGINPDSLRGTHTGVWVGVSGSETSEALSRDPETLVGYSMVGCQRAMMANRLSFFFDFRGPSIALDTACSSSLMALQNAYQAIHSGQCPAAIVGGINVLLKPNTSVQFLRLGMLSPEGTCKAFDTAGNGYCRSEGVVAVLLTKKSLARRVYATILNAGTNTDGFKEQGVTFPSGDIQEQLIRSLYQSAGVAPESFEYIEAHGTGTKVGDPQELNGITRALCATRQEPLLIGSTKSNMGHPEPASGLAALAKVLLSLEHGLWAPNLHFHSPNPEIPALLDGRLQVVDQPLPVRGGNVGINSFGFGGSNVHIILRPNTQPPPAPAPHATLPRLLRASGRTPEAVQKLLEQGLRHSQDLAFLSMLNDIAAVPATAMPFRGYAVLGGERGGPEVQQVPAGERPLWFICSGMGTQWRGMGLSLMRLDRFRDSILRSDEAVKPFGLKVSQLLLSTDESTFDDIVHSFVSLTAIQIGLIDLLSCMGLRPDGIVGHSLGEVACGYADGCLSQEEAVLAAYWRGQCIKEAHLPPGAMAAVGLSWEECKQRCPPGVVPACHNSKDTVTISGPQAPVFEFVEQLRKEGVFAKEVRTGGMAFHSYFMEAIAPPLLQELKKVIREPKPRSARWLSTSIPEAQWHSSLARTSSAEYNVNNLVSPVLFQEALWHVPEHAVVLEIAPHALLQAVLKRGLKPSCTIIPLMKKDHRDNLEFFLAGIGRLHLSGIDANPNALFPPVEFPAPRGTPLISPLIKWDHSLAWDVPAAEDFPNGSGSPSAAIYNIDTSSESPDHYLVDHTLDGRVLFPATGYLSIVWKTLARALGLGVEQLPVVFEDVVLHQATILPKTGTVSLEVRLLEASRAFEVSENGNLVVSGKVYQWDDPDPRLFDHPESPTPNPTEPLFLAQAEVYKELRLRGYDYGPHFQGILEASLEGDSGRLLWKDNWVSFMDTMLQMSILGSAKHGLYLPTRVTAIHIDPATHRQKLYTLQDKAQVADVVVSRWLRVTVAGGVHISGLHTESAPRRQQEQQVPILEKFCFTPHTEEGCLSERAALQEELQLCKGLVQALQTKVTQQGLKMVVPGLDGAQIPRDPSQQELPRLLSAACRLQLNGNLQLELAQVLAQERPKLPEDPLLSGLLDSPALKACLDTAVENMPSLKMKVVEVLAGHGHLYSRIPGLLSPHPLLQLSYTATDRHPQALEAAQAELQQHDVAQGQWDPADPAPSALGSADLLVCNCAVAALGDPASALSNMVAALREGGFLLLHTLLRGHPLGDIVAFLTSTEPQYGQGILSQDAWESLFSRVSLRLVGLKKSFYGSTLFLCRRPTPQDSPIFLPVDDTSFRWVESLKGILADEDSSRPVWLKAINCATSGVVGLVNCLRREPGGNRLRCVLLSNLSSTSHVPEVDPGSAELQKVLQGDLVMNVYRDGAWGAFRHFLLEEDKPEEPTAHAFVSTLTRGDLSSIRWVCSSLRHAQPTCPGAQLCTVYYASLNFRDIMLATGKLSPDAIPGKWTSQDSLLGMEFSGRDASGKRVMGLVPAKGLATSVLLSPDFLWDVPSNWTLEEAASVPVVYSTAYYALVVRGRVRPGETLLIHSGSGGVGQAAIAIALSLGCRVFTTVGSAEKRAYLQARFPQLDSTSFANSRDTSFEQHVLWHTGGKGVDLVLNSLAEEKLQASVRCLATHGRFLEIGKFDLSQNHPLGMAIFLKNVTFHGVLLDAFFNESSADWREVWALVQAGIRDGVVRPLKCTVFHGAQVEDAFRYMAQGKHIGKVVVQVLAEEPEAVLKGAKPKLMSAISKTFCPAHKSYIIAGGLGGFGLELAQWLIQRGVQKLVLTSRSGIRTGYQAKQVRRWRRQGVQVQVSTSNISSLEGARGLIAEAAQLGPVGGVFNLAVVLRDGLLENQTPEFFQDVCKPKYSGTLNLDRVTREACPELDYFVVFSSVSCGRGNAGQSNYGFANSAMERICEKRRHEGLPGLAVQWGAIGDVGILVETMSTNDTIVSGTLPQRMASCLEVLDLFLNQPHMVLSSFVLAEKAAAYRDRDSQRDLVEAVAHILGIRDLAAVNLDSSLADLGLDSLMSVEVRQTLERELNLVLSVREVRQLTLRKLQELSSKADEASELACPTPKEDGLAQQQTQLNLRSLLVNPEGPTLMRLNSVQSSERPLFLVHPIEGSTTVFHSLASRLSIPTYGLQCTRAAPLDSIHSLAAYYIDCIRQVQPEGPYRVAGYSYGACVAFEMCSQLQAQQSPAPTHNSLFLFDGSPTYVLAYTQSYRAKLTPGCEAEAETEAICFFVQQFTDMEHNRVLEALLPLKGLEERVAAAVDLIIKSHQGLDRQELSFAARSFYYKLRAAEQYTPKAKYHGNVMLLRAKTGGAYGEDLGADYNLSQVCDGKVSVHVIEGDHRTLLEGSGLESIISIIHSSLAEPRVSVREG
# Fatty acid synthase [8] = biological target: T4, Fatty acid synthase; experiment: inhibition of human FAS-TE enzyme activity – biochemical, endpoint fluorescence intensity, uHTS hits, dose response (AID 624327); type: functional;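 further: fluorescence from hydrolysis of an O-methyl fluorescein acyl ester substrate by the enzyme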
# [9] = biological target: Beta-2 adrenergic receptor (Homo sapiens, UniProt P07550); experiment: ADRB2 activation measured by internalization – cell-based, FAP fluorogen, flow cytometry, cherry pick 1, dose response (AID 588763); type: functional
# Chain of Beta-2 adrenergic receptor (P07550 whole entry): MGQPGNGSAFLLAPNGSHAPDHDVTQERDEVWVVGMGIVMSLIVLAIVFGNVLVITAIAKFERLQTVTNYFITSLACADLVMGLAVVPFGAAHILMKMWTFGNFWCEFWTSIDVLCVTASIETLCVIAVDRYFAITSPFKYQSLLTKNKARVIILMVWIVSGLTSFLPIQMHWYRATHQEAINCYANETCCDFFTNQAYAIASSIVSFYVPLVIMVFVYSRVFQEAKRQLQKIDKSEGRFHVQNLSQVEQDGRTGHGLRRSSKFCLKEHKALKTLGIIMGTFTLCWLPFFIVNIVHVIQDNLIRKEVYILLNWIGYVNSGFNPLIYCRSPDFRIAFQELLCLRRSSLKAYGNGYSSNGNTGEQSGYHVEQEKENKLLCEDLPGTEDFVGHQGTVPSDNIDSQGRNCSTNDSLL
# [10] = HEK-293T cell viability reduction – luminescence, B-cell screen hits, cytotoxicity control for BCR NF-kB inhibitor project, dose response (AID 489021); type: functional, cell-based;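 further: HEK-293T cells carrying an NF-kB luciferase reporter; cells exposed to compound for about 14 hours before viability readout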
# HEK293 = experiment: HEK293T cell viability loss, resazurin readout – resazurin fluorescence, cytotoxicity control for NF-kB activator project, SAR follow-up (AID 493251); type: functional, cell-based; conditions: Homo sapiens
# [11] = biological target: T5, Induced myeloid leukemia cell differentiation protein Mcl-1 (Homo sapiens, UniProt Q07820); type: functional
# T5 sequence (Q07820 whole entry): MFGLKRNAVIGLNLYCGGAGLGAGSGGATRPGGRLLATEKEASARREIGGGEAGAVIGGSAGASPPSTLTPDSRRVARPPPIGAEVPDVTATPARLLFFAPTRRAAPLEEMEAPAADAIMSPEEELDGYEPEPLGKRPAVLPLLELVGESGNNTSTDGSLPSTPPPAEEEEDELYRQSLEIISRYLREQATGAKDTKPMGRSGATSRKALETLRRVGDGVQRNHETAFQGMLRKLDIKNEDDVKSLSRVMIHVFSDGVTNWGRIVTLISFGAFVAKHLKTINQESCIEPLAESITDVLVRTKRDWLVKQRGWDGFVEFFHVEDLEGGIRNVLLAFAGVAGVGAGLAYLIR
# [12] = Vero E6 cell cytotoxicity, dose response, cytotoxicity control for non-replicating M. tuberculosis project, secondary assay (AID 492998); type: functional, VeroE6; conditions: Vero C1008
# Streptokinase A = biological target: T6, Streptokinase A (Streptococcus pyogenes serotype M1, UniProt P10520); experiment: viability-normalized secreted streptokinase activity reduction – plasminogen activation absorbance, OD405, dose response (AID 1914); type: functional, Streptococcus pyogenes M1 GAS;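 further: secreted streptokinase activity via plasminogen activation per viability signal from cell pellet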
# T6 sequence (P10520 whole entry): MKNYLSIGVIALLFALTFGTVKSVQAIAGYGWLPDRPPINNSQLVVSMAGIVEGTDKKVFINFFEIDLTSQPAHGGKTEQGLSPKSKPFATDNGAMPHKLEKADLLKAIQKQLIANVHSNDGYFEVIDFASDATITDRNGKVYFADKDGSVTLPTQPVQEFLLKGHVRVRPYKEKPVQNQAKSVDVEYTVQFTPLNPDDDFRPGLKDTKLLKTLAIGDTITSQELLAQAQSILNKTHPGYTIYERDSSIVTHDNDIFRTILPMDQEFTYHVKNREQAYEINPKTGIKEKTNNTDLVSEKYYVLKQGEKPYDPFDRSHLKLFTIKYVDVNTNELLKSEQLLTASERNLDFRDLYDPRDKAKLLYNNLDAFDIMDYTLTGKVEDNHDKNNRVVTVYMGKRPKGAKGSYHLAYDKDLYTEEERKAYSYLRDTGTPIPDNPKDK
# Streptococcus = experiment: GAS UMAA2166 growth inhibition – luminescence, BacTiterGlo, counter-screen for streptokinase expression inhibitor project, dose response (AID 1915); type: functional, organism-based;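 further: potency for reduction of bacterial viability or growth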
# [13] = viability of uninfected HEp-2 cells – cell-based, HTS, cytotoxicity control for RSV inhibitor project, dose response (AID 2410); type: functional; conditions: human respiratory syncytial virus
# Bcl-2-like protein 1 = Bcl-2-like protein 1 (Homo sapiens, UniProt Q07817); experiment: blockers of BCLXL peptide binding – biochemical, fluorescence polarization, 1536-well, selectivity assay for MCL1 inhibitor project, dose response (AID 2218)
# [14] = tested on: Streptococcus sp. 'group A'; experiment: Streptococcus pyogenes SK(-)GAS viability under kanamycin – luminescence, BacTiterGlo, confirmation, counter-screen for streptokinase expression inhibitor project, dose response (AID 1900); type: functional, organism-based
# Cysteine protease ATG4B = Cysteine protease ATG4B (Homo sapiens, UniProt Q9Y4P1); type: functional;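 further: Fluorescence-based dose-response confirmation assay measuring inhibition of ATG4B activity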
# Chain of Cysteine protease ATG4B (Q9Y4P1 whole entry): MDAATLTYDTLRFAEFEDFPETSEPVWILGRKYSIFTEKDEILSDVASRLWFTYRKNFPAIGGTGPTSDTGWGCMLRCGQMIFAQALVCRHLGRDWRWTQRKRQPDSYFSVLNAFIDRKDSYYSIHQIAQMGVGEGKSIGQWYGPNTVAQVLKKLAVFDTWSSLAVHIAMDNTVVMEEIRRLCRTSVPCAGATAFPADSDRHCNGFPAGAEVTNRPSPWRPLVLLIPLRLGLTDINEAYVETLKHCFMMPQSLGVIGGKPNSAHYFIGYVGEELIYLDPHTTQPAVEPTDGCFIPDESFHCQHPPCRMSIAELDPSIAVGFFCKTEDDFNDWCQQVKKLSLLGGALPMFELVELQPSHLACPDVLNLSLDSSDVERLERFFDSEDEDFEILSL
# Estrogen receptor beta = Estrogen receptor beta (Homo sapiens, UniProt Q92731); experiment: blockers of SRC-3 recruitment to ERβ – biochemical, ELISA, streptavidin-HRP readout, orthogonal assay, confirmation (AID 1060)
# [15] = THP-1 cell cytotoxicity, dose response, cytotoxicity control for non-replicating M. tuberculosis project (AID 489025); type: functional
# [16] = biological target: T5, Induced myeloid leukemia cell differentiation protein Mcl-1; experiment: blockers of MCL1 binding to BIM peptide – biochemical, fluorescence polarization, BIM-BH3 peptide, 1536-well, dose response (AID 2217)
# Phospholipase A2 = Phospholipase A2 (Homo sapiens, UniProt P04054); type: functional;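 further: confirmatory dose-response counterscreen on phospholipase A2, testing hits that came from an ultra-high-throughput screen for ATG4B inhibitors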
# Chain of Phospholipase A2 (P04054 whole entry): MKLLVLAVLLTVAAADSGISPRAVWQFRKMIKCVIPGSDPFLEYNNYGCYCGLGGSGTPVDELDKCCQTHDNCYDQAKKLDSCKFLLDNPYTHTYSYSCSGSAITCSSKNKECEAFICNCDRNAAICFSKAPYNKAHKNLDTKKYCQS
# Aminopeptidase N = biological target: T7, Aminopeptidase N (Plasmodium falciparum FcB1/Columbia, UniProt O96935); experiment: malaria alanyl aminopeptidase activity blockers – biochemical, fluorogenic H-Leu-NHMec substrate, 1536-well (AID 1445); parameters: species or system Plasmodium falciparum 3D7, 3D7
# T7 sequence (O96935 whole entry): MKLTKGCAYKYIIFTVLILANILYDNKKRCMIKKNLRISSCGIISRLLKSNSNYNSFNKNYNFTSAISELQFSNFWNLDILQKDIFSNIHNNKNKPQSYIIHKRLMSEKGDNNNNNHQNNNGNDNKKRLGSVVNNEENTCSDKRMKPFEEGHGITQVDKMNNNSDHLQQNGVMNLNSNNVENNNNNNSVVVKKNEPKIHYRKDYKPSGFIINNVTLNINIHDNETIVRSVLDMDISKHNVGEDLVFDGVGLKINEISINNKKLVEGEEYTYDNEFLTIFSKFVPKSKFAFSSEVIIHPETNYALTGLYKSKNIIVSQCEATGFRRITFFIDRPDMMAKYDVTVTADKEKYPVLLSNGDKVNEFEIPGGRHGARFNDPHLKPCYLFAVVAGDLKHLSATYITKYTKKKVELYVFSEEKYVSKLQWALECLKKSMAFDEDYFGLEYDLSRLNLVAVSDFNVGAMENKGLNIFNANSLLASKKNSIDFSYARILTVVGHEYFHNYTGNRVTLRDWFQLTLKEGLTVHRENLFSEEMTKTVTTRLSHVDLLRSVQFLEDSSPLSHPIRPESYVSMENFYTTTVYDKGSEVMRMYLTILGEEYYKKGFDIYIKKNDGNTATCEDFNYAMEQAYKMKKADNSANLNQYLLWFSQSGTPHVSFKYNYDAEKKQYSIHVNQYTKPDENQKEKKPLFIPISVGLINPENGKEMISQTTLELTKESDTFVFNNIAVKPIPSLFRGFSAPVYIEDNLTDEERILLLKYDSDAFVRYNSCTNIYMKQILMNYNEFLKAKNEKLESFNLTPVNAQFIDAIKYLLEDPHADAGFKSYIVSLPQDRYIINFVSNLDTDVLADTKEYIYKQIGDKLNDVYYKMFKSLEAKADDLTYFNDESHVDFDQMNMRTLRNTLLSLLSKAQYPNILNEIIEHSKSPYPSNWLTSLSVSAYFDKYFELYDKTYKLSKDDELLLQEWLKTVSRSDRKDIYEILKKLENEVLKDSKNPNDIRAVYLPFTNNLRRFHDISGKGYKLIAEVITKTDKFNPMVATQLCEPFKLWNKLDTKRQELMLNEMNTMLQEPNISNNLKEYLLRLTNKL
# Chain of C-C chemokine receptor type 6 (P51684 whole entry): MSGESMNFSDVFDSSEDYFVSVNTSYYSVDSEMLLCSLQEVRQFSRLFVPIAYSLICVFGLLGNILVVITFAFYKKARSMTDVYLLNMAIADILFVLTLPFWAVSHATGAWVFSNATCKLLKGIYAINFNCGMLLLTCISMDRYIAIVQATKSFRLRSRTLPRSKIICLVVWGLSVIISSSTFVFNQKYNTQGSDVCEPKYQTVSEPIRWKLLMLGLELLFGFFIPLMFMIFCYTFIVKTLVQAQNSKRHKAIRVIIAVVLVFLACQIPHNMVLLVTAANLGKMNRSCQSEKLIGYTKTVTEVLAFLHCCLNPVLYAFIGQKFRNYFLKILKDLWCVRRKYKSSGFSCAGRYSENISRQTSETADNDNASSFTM
compound,measurement,setting,value
CN1CCc2nc(SCc3ccc(Cl)cc3)c(C#N)c(-c3cccs3)c2C1,IC50,[1],> 66.6 µM (inactive)
same,EC50,Protein RecA,4.41 µM (active)
same,IC50,[2],26.3 µM (inactive)
same,AC50,[3],> 380 µM (inactive)
same,EC50,cells,0.014 µM (active)
same,EC50,[4],> 60 µM (not active)
same,IC50,Apelin receptor,> 66.6 µM (inactive)
same,EC50,[5],< 0.1 µM (active)
same,EC50,[6],10.1 µM (active)
N#Cc1cc(-c2ccccc2)nc(Oc2ccc(Cl)cc2)n1,IC50,Fatty acid synthase [7],9.1 µM (active)
same,IC50,Fatty acid synthase [8],7.97 µM (active)
same,EC50,[9],1.25 µM (active)
CCc1ccc(-c2nc(CSCC(=O)NC3CC3)c(C)o2)cc1,IC50,[10],> 80 µM (inactive)
same,IC50,HEK293,> 80 µM (inactive)
C/C(=N/NC(=O)c1cc2ccccc2cc1O)C1C(=O)c2ccccc2C1=O,IC50,[11],2.11 µM (active)
same,CC50,[12],16.7 µM (active)
same,EC50,Streptokinase A,> 150 µM (not active)
same,EC50,Streptococcus,10.1 µM (active)
same,CC50,[13],> 50 µM (active)
same,IC50,Bcl-2-like protein 1,> 109 µM (not active)
same,EC50,[14],1.03 µM (active)
same,IC50,Cysteine protease ATG4B,5.43 µM (active)
same,IC50,Estrogen receptor beta,0.0588 µM (not active)
same,CC50,[15],17.7 µM (active)
same,IC50,[16],> 109 µM (not active)
same,IC50,Phospholipase A2,4.87 µM (active)
same,IC50,Aminopeptidase N,12 µM (active)
